Results from paper PMC10538245, “Fragment merging approach for design, synthesis, and biological assessment of urea/acetyl hydrazide clubbed thienopyrimidine derivatives as GSK-3β inhibitors” (BMC Chemistry, 2023).

What was measured:
[1] = target: GSK-3β (Homo sapiens, UniProt P49841); assay: GSK-3β kinase inhibition, Z'-LYTE FRET assay (Thermo Fisher SelectScreen); assay type: biochemical; conditions: for inhibition at 100 µM: 100 μM single dose
[2] = tested on: U251; assay: NCI 60-cell line one dose antiproliferative assay; assay type: cell-based; conditions: Homo sapiens, U-251; U251, CNS Cancer, 10 µM one dose; read-out: Percent inhibition (cell growth inhibition %)
From the text: (§1) The National Cancer Institute "NCI", NIH, Bethesda, Maryland, USA (www.dtp.nci.nih.gov) chose six of the final compounds for the Developmental Therapeutic Program (DTP), codes (5a, 5b, 5c, 5d, 6a, 6b). The NCI screening service will favor compounds with drug-like modes of action based on computer-aided design. Selection The criterion for screening is the possibility of the submitted compounds to provide diversity to the NCI small molecule chemical collection. This screen employs 60 different Leukemia, melanoma, and additional tumor cell lines of the human from brain, kidney, lung, ovary, colon, breast, and prostate cancers. All compounds were picked based on their NCI codes. NSC: D-820696/1, NSC: D-820697/1, NSC: D-820698/1, NSC: D-820699/1, NSC: D-820700/1, NSC: D-820701/1. The initial 10 µM one dose percent inhibition assay was performed on the entire NCI 60 cell panel to examine the different chemotypes of this work. The results are presented as a percentage of cell growth on each of the 60 NCI cell line panels for each of the investigated substances in Table 2.
(§2) The NCI cancer screening procedure includes a comparison of all substances to the sixty NCI cell line panel representing leukemia, NSCLC, cell lines from breast cancer, prostate cancer, melanoma, CNS cancer, renal cancer, ovarian cancer, and colon cancer at a single point of 10 uM. The results of the single-dose screen can be presented using a mean graph.

[3] = tested on: SF-539; assay: NCI 60-cell line one dose antiproliferative assay; assay type: cell-based; conditions: Homo sapiens; SF-539, CNS Cancer, 10 µM one dose; read-out: Percent inhibition (cell growth inhibition %)
From the text: as §1, §2

[4] = tested on: PC-3; assay: NCI 60-cell line one dose antiproliferative assay; assay type: cell-based; conditions: Homo sapiens; PC-3, Prostate Cancer, 10 µM one dose; read-out: Percent inhibition (cell growth inhibition %)
From the text: as §1, §2

[5] = tested on: SN12C; assay: NCI 60-cell line one dose antiproliferative assay; assay type: cell-based; conditions: Homo sapiens, Renal Cancer, 10 µM one dose, read-out: Percent inhibition (cell growth inhibition %)
From the text: as §1, §2

[6] = tested on: SF-295; assay: NCI 60-cell line one dose antiproliferative assay; assay type: cell-based; conditions: Homo sapiens; SF-295, CNS Cancer, 10 µM one dose; read-out: Percent inhibition (cell growth inhibition %)
From the text: as §1, §2

[7] = tested on: HS 578 T; assay: NCI 60-cell line one dose antiproliferative assay; assay type: cell-based; conditions: Homo sapiens, Breast Cancer, 10 µM one dose, read-out: Percent inhibition (cell growth inhibition %)
From the text: as §1, §2

[8] = tested on: UO-31; assay: NCI 60-cell line one dose antiproliferative assay; assay type: cell-based; conditions: Homo sapiens; UO-31, Renal Cancer, 10 µM one dose; read-out: Percent inhibition (cell growth inhibition %)
From the text: as §1, §2

[9] = tested on: SNB-19; assay: NCI 60-cell line one dose antiproliferative assay; assay type: cell-based; conditions: Homo sapiens; SNB-19, CNS Cancer, 10 µM one dose; read-out: Percent inhibition (cell growth inhibition %)
From the text: as §1, §2

[10] = tested on: A498; assay: NCI 60-cell line one dose antiproliferative assay; assay type: cell-based; conditions: Homo sapiens; A498, Renal Cancer, 10 µM one dose; read-out: Percent inhibition (cell growth inhibition %)
From the text: as §1, §2

[11] = tested on: IGROV1; assay: NCI 60-cell line one dose antiproliferative assay; assay type: cell-based; conditions: Homo sapiens, IGROV-1; IGROV1, Ovarian Cancer, 10 µM one dose; read-out: Percent inhibition (cell growth inhibition %)
From the text: as §1, §2

[12] = tested on: SK-MEL-5; assay: NCI 60-cell line one dose antiproliferative assay; assay type: cell-based; conditions: Homo sapiens; SK-MEL-5, Melanoma, 10 µM one dose; read-out: Percent inhibition (cell growth inhibition %)
From the text: as §1, §2

[13] = tested on: SF-268; assay: NCI 60-cell line one dose antiproliferative assay; assay type: cell-based; conditions: Homo sapiens; SF-268, CNS Cancer, 10 µM one dose; read-out: Percent inhibition (cell growth inhibition %)
From the text: as §1, §2

[14] = tested on: CAKI-1; assay: NCI 60-cell line one dose antiproliferative assay; assay type: cell-based; conditions: Homo sapiens; CAKI-1, Renal Cancer, 10 µM one dose; read-out: Percent inhibition (cell growth inhibition %)
From the text: as §1, §2

[15] = tested on: MCF7; assay: NCI 60-cell line one dose antiproliferative assay; assay type: cell-based; conditions: Homo sapiens; MCF7, Breast Cancer, 10 µM one dose; read-out: Percent inhibition (cell growth inhibition %)
From the text: as §1, §2

[16] = tested on: MDA-MB-231/ATCC; assay: NCI 60-cell line one dose antiproliferative assay; assay type: cell-based; conditions: Homo sapiens, Breast Cancer, 10 µM one dose, read-out: Percent inhibition (cell growth inhibition %)
From the text: as §1, §2

[17] = tested on: M14; assay: NCI 60-cell line one dose antiproliferative assay; assay type: cell-based; conditions: Homo sapiens; M14, Melanoma, 10 µM one dose; read-out: Percent inhibition (cell growth inhibition %)
From the text: as §1, §2

[18] = tested on: K-562; assay: NCI 60-cell line one dose antiproliferative assay; assay type: cell-based; conditions: Homo sapiens, K562; K-562, Leukemia, 10 µM one dose; read-out: Percent inhibition (cell growth inhibition %)
From the text: as §1, §2

[19] = tested on: ACHN; assay: NCI 60-cell line one dose antiproliferative assay; assay type: cell-based; conditions: Homo sapiens, Renal Cancer, 10 µM one dose, read-out: Percent inhibition (cell growth inhibition %)
From the text: as §1, §2

[20] = tested on: OVCAR-5; assay: NCI 60-cell line one dose antiproliferative assay; assay type: cell-based; conditions: Homo sapiens; OVCAR-5, Ovarian Cancer, 10 µM one dose; read-out: Percent inhibition (cell growth inhibition %)
From the text: as §1, §2

[21] = tested on: T-47D; assay: NCI 60-cell line one dose antiproliferative assay; assay type: cell-based; conditions: Homo sapiens, T47D, Breast Cancer, 10 µM one dose, read-out: Percent inhibition (cell growth inhibition %)
From the text: as §1, §2

[22] = tested on: SR; assay: NCI 60-cell line one dose antiproliferative assay; assay type: cell-based; conditions: Homo sapiens, Leukemia, 10 µM one dose, read-out: Percent inhibition (cell growth inhibition %)
From the text: as §1, §2

[23] = tested on: NCI-H226; assay: NCI 60-cell line one dose antiproliferative assay; assay type: cell-based; conditions: Homo sapiens; NCI-H226, Non-Small Cell Lung Cancer, 10 µM one dose; read-out: Percent inhibition (cell growth inhibition %)
From the text: as §1, §2

[24] = tested on: UACC-62; assay: NCI 60-cell line one dose antiproliferative assay; assay type: cell-based; conditions: Homo sapiens; UACC-62, Melanoma, 10 µM one dose; read-out: Percent inhibition (cell growth inhibition %)
From the text: as §1, §2

[25] = tested on: SNB-75; assay: NCI 60-cell line one dose antiproliferative assay; assay type: cell-based; conditions: Homo sapiens; SNB-75, CNS Cancer, 10 µM one dose; read-out: Percent inhibition (cell growth inhibition %)
From the text: as §1, §2

[26] = tested on: HOP-92; assay: NCI 60-cell line one dose antiproliferative assay; assay type: cell-based; conditions: Homo sapiens; HOP-92, Non-Small Cell Lung Cancer, 10 µM one dose; read-out: Percent inhibition (cell growth inhibition %)
From the text: as §1, §2

[27] = tested on: LOX IMVI; assay: NCI 60-cell line one dose antiproliferative assay; assay type: cell-based; conditions: Homo sapiens, Melanoma, 10 µM one dose, read-out: Percent inhibition (cell growth inhibition %)
From the text: as §1, §2

[28] = tested on: 786–0; assay: NCI 60-cell line one dose antiproliferative assay; assay type: cell-based; conditions: Homo sapiens; 786–0, Renal Cancer, 10 µM one dose; read-out: Percent inhibition (cell growth inhibition %)
From the text: as §1, §2

[29] = tested on: MALME-3 M; assay: NCI 60-cell line one dose antiproliferative assay; assay type: cell-based; conditions: Homo sapiens, Melanoma, 10 µM one dose, read-out: Percent inhibition (cell growth inhibition %)
From the text: as §1, §2

[30] = tested on: NCI-H522; assay: NCI 60-cell line one dose antiproliferative assay; assay type: cell-based; conditions: Homo sapiens; NCI-H522, Non-Small Cell Lung Cancer, 10 µM one dose; read-out: Percent inhibition (cell growth inhibition %)
From the text: as §1, §2

[31] = tested on: RPMI-8226; assay: NCI 60-cell line one dose antiproliferative assay; assay type: cell-based; conditions: Homo sapiens; RPMI-8226, Leukemia, 10 µM one dose; read-out: Percent inhibition (cell growth inhibition %)
From the text: as §1, §2

[32] = tested on: A549/ ATCC; assay: NCI 60-cell line one dose antiproliferative assay; assay type: cell-based; conditions: Homo sapiens, Non-Small Cell Lung Cancer, 10 µM one dose, read-out: Percent inhibition (cell growth inhibition %)
From the text: as §1, §2

[33] = tested on: EKVX; assay: NCI 60-cell line one dose antiproliferative assay; assay type: cell-based; conditions: Homo sapiens, Non-Small Cell Lung Cancer, 10 µM one dose, read-out: Percent inhibition (cell growth inhibition %)
From the text: as §1, §2

[34] = tested on: RXF 393; assay: NCI 60-cell line one dose antiproliferative assay; assay type: cell-based; conditions: Homo sapiens; RXF 393, Renal Cancer, 10 µM one dose; read-out: Percent inhibition (cell growth inhibition %)
From the text: as §1, §2

[35] = tested on: NCI-H322M; assay: NCI 60-cell line one dose antiproliferative assay; assay type: cell-based; conditions: Homo sapiens, Non-Small Cell Lung Cancer, 10 µM one dose, read-out: Percent inhibition (cell growth inhibition %)
From the text: as §1, §2

Sequence of GSK-3β (P49841 whole entry): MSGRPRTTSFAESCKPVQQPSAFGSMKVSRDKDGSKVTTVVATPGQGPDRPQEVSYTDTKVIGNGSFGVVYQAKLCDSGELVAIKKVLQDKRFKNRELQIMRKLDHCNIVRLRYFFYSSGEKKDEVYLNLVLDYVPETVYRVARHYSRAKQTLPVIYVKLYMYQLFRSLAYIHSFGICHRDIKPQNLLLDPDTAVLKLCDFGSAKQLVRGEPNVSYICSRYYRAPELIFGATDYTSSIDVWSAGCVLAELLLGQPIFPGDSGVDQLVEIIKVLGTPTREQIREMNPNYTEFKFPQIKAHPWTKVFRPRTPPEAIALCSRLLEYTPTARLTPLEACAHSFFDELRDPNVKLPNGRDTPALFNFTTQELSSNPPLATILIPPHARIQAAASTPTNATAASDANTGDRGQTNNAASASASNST

inhibition at 10 µM [1]	inhibition at 100 µM [1]	melting point	Compound	inhibition at 10 µM [2]	inhibition at 10 µM [4]	inhibition at 10 µM [5]	inhibition at 10 µM [7]	inhibition at 10 µM [8]	inhibition at 10 µM [9]	inhibition at 10 µM [10]	inhibition at 10 µM [11]	inhibition at 10 µM [13]	inhibition at 10 µM [14]	inhibition at 10 µM [15]	inhibition at 10 µM [16]	inhibition at 10 µM [17]	inhibition at 10 µM [18]	inhibition at 10 µM [20]	inhibition at 10 µM [21]	inhibition at 10 µM [22]	further results
17%	68%	300 °C	S=C(Nc1ccccc1)Nc1ncnc2sc3c(c12)CCCC3 [9a, Phenyl-3-(5,6,7,8-tetrahydrobenzo [4,5]thieno[2,3-d)pyrimidin-4-yl) thiourea]																		
	68%	300 °C	O=C(Nc1ccc(Cl)c(C(F)(F)F)c1)Nc1ncnc2sc3c(c12)CCCC3 [9c, 1-(4-Chloro-3-(trifluoromethyl)phenyl)-3-(5,6,7,8tetrahydrobenzo[4,5]thieno[2,3-d]pyrimidin-4-yl)urea]																		
6%	24%	280 to 281 °C	COc1ccc(C=NNC(=O)COc2ncnc3sc4c(c23)CCCC4)c(OC)c1OC [5a, 2-((5,6,7,8-Tetrahydrobenzo [4,5]thieno[2,3-d]pyrimidin-4-yl)oxy)-N'-(2,3,4-trimethoxybenzylidene) acetohydrazide]	0.3%	2.52%	5.91%	7.21%	23.3%	6.88%	11.8%	1.47%	0.3%	7.04%	10.7%	6.61%	1.68%	7.93%	5%	4.24%	2.15%	inhibition at 10 µM [3]: 5.93%; inhibition at 10 µM [6]: 0.79%; inhibition at 10 µM [12]: 1.37%; inhibition at 10 µM [19]: 0.55%; inhibition at 10 µM [23]: 0.3%; inhibition at 10 µM [24]: 8.06%; inhibition at 10 µM [25]: 28.5%; inhibition at 10 µM [26]: 2.18%; inhibition at 10 µM [27]: 4.82%; inhibition at 10 µM [28]: 0.81%; inhibition at 10 µM [29]: 2.96%; inhibition at 10 µM [30]: 5.39%
3%	17%	275 to 276 °C	O=C(COc1ncnc2sc3c(c12)CCCC3)NN=Cc1ccc(Cl)cc1 [5b, N'-(4-Chlorobenzylidene)-2-((5,6,7,8-tetrahydrobenzo [4,5]thieno[2,3-d]pyrimidin-4-yl)oxy) acetohydrazide]	15.9%	3.8%	2.55%	7.62%	23.1%	9.77%	11.1%	11%	4.27%	4.53%	11.7%	7.6%	2%	0.32%	8.96%	6.96%	1.63%	inhibition at 10 µM [31]: 2.71%; inhibition at 10 µM [32]: 4.36%; inhibition at 10 µM [33]: 3.11%; inhibition at 10 µM [34]: 4.13%; inhibition at 10 µM [23]: 2.81%; inhibition at 10 µM [24]: 4.84%; inhibition at 10 µM [35]: 0.39%; inhibition at 10 µM [25]: 18.4%; inhibition at 10 µM [26]: 0.71%; inhibition at 10 µM [27]: 7.09%; inhibition at 10 µM [28]: 2.11%; inhibition at 10 µM [29]: 6.05%
